US10821120B2, “Method for controlling neuroinflammation” (N.V. NUTRICIA, priority 2016, dated 2020)

Experiments:
[1] = system: LPS-stimulated BV-2 cells; experiment: Griess assay (nitric oxide release) from LPS-activated BV-2 microglia; assay type: cell-based, mouse; details: vitamin D 1 μg/ml, DHA 20 μM; for NO release as percentage of the NO released by cells stimulated only with LPS: Example 1, high non-toxic concentrations: vitamin A 1.75 μM, EPA 20 μM, 24 h pretreatment, then 24 h with LPS 50 ng/ml plus same nutrients, LPS control = 100%; for effect on LPS-induced NO release (in words): Example 1 concentrations: vitamin B6 29 μM, folic acid 24 μM, vitamin B12 0.2 μM, vitamin A 1.75 μM, versus LPS control
From the text: (§1) BV-2 cell cultures: BV-2 cells were obtained from IRCCS (Azienda Ospedaliera Universitaria San Martino—IST Istituto Nazionale per la Ricerca sul Cancro, Genova, Italy). BV-2 cell lines are immortalized cell lines derived from C57bl/6 mouse. These are considered to closely resemble the physiology of primary microglia cells and form a well-established model for investigation in vitro (Henn et al., ALTEX, 2009, 26, 83-94). Lipopolysaccharide (LPS), an endotoxin derived from the cell wall of gram negative bacteria, is the most widely used agent to activate immune cells. Cells were cultured in Dulbecco's Modified Eagle Medium (DMEM, Gibco) supplemented with 10% of heat-inactivated fetal bovine serum (Invitrogen), 10,000 units/ml penicillin (Gibco), 10,000 μg/ml streptomycin (Gibco) and 200 mM L-glutamine (Gibco) and maintained at 37° C. and 5% CO2. Twenty-four hours before the experiment, cells were plated on 96 well plates (Corning) at a cell density of approximately 20,000 cells/well and maintained in DMEM supplemented with 2% fetal bovine serum, 10,000 units/ml penicillin, 10,000 μg/ml streptomycin and 200 mM L-glutamine, for the duration of the experiment.
(§2) Cell viability: Cell proliferation and viability were assessed with 2,3-bis(2-methoxy-4-nitro-5-sulfophenyl)-2H-tetrazolium-5-carboxanilide inner salt (XTT, Sigma) at a concentration of 1 mg/ml. Phenazine methosulfate (PMS, Sigma) at a concentration of 200 mg/ml was added as an electron coupling reagent. The XTT/PMS solution in sterile water (100 μl) was added to each well. After 2 h, the absorbance was measured at 450 nm (and 690 nm as a reference). The absorbance was corrected for the number of cells. The viability test was repeated for each experiment as a within plate control.
Griess assay (nitric oxide release): Cells were treated for 24 h with different combinations of nutrients. This treatment was followed by exchanging the medium for fresh medium with LPS (50 ng/ml) combined with the same nutrients. After incubation for 24 h, media were collected for measurement of NO release. The stable product of NO released by the BV-2 cells is NO2^−. The concentration of NO2^− was measured with a Griess assay Kit (Promega) according to the manufacturer's instructions. Data were corrected for cell viability (the viability of untreated control cells represented 100% of viability). Data are represented as percentage of the NO released by cells stimulated only with LPS. To assess variability between the tests, data from the treatment with LPS alone were pooled and an average release between experiments was calculated for NO. For treatment with LPS alone, the NO release is represented as the percentage of the average release between experiments.
(§3) Statistical analysis: All experiments were performed at least in triplicate. The data are presented as dots representing means and bars representing standard error mean (SEM). Due to the small sample size, non-parametric statistical tests were used. Data were analyzed with the Kruskal-Wallis H test and if the statistical significance was reached, Mann Whithey U test with Bonferroni-Holm post-hoc correction to allow multiple comparisons was performed. A difference was considered statistically significant when the probability (p) was <0.05.
(§4) BV-2 cells were pretreated for 24 h with different nutrients: (I) vitamin A (1.75 μM); (II) vitamin D (1 μg/ml); (III) DHA (20 μM); (IV) EPA (20 μM); (V) vitamin B6 (29 μM, including 19 μM already present in the culture medium); (VI) folic acid (24 μM, including 9 μM already present in the culture medium); (VII) vitamin B12 (0.2 μM). This was followed by 24 h incubation with LPS (50 ng/ml) combined with the same nutrients. Media were collected for measurement of NO release with the Griess assay (FIG. 1A) and IL-6 release with ELISA (FIG. 1B). NO and IL-6 levels are presented as the percentage of the concentration produced by cells treated with LPS alone (LPS control, dashed line).

[2] = system: LPS-stimulated BV-2 cells; experiment: ELISA (IL-6) release from LPS-activated BV-2 microglia; assay type: cell-based, mouse; details: vitamin D 1 μg/ml, DHA 20 μM; for IL-6 release as percentage of the IL-6 released by cells stimulated only with LPS: Example 1, high non-toxic concentrations: vitamin A 1.75 μM, EPA 20 μM, 24 h pretreatment, then 24 h with LPS 50 ng/ml plus same nutrients, LPS control = 100%; for effect on LPS-induced IL-6 release (in words): Example 1 concentrations: vitamin B6 29 μM, folic acid 24 μM, vitamin B12 0.2 μM, vitamin A 1.75 μM, versus LPS control
From the text: as §1, §2
ELISA (IL-6): Cells were treated for 24 h with different combinations of nutrients. Subsequently, the medium was removed and cells were incubated for 24 h in fresh medium with LPS (50 ng/ml) combined with the same nutrients. Media were collected for measurement of IL-6 release. Collected samples were stored at −80° C. until further analysis. The cytokine levels were assessed using ELISA MAX™ Deluxe from Biolegend according to the manufacturer's protocol. Data were corrected for cell viability. Data are represented as percentage of the IL-6 released by cells stimulated only with LPS. To assess variability between the tests, data from the treatment with LPS alone were pooled and an average release between experiments was calculated for IL-6. For LPS alone treatment the IL-6 release is represented as the percentage of the average release between experiments.
as §3
as §4, with “line). All graphs represent the results from 4 independent experiments (mean±SEM).” for “line).”

Compound	NO release as percentage of the NO released by cells stimulated only with LPS [1]	IL-6 release as percentage of the IL-6 released by cells stimulated only with LPS [2]	effect on LPS-induced NO release (in words) [1]	effect on LPS-induced IL-6 release (in words) [2]
CC/C=C\C/C=C\C/C=C\C/C=C\C/C=C\C/C=C\CCC(=O)O [DHA, cis-4,7,10,13,16,19-docosahexaenoic acid]	68%	68%	–	–
CC/C=C\C/C=C\C/C=C\C/C=C\C/C=C\CCCC(=O)O [EPA, cis-5,8,11,14,17-eicosapentaenoic acid]	80%	70%	–	–
N[C@@H](CS)C(=O)O [L-cysteine]	–	–	did not cause any significant effect	did not cause any significant effects
N[C@@H](Cc1c[nH]c2ccccc12)C(=O)O [L-tryptophan]	–	–	did not cause any significant effect	did not cause any significant effects
Cc1ncc(CO)c(CO)c1O.Cl [Vitamin B6, vitamin B6]	–	–	did not cause any significant effect	did not cause any significant effects
Nc1nc2ncc(CNc3ccc(C(=O)N[C@@H](CCC(=O)O)C(=O)O)cc3)nc2c(=O)[nH]1 [Vitamin B9, folic acid]	–	–	did not cause any significant effect	did not cause any significant effects
C=C1CC[C@H](O)C/C1=C/C=C1\CCC[C@]2(C)[C@@H]([C@H](C)CCCC(C)C)CC[C@@H]12 [Vitamin D, vitamin D3]	43%	43%	–	–
vitamin A	39%	42%	–	–
vitamin B12	–	–	did not cause any significant effect	did not cause any significant effects
